# From article PMC9697330, “Co-Delivery of 8-Hydroxyquinoline Glycoconjugates and Doxorubicin by Supramolecular Hydrogel Based on α-Cyclodextrin and pH-Responsive Micelles for Enhanced Tumor Treatment” (Pharmaceutics, 2022)
# Like-named read-outs stand apart in the source and are kept apart here.
# Assays:
# [1] = NMR titration for host-guest inclusion complex of 8HQ-Glu with α-CD; type: physicochemical; details: D2O, α-CD 10 mM, 8HQ-Glu 1 to 20 mM, 24 h at rt
# Experimental: SMHs were prepared based on the host–guest interaction between the PEG chains of mPEG-b-PKPC or mPEG-b-PTMC micelles and α-CD. Typically, the lyophilized micelles were resuspended (15 mg·mL^−1) in PBS at pH 7.4, as a hydrogel precursor. Then, the same volume of 12% solution of α-CD in PBS was added to the micelle solution. The mixture was vortexed for 1 min followed by sonication for 1 min. The resultant mixture was allowed to stand still overnight for solidification. Firstly, gelation was visually observed by a simple vial inversion method. […] Thus, SMHs obtained (mPEG-b-PKPC^SMH or mPEG-b-PTMC^SMH) were used for characterization studies without any further modification. The transmittance of the α-CD and mPEG-b-PKPC^mic solution, measured at predetermined time intervals at 650 nm, immediately after mixing, was studied using a UV-Vis spectrophotometer JASCO V-570 (Tokyo, Japan). To confirm the formation of supramolecular hydrogels, the samples of mPEG5k, α-CD, mPEG-b-PKPC, or mPEG-b-PTMC, the lyophilized mPEG-b-PKPC^mic, or mPEG-b-PTMC^mic, the physical mixture of α-CD with the respective micelles, and freeze-dried SMHs were studied using the X-ray diffraction method (XRD). […] The samples were incubated for 24 h at rt with gentle shaking and the NMR spectra were measured.
# [2] = test system: NHDF-Neo (Normal Human Dermal Fibroblasts-Neonatal); assay: MTT assay, cytotoxicity against NHDF-Neo cells; type: cell-based
# Excerpt: (§1) The human breast adenocarcinoma cell line (MCF-7) was received from collections at the Maria Skłodowska-Curie Memorial Cancer Center and Institute of Oncology (Gliwice, Poland). The Normal Human Dermal Fibroblasts—Neonatal (NHDF-Neo) were purchased from LONZA (Cat. No. CC-2509, Lonza, Poland). The culture media consisted of DMEM + F12 medium, with 5% antibiotics (penicillin and streptomycin) and 10% fetal bovine serum. The culture media was bought from HyClone. Fetal bovine serum (FBS) was purchased from Eurx, Poland. Antibiotic Antimycotic Solution (100×) was purchased from Sigma-Aldrich, Germany.
# (§2) The cytotoxicity of blank and drug-loaded SMH were evaluated using the MTT assay (Merck, Darmstadt, Germany). Briefly, human breast adenocarcinoma (MCF-7) or Normal Human Dermal Fibroblasts-Neonatal (NHDF-Neo) cells were seeded into 96-well plates at a concentration of 5 × 10^3 per well. The cell cultures were incubated for 24 h at 37 °C in a humidified atmosphere of 5% CO2. Afterward, the culture medium was removed, replaced with tested formulations, in a medium with varying concentrations, and incubated further for 24, 48, or 72 h, respectively. After that, the medium was removed and the MTT solution was added (0.5 mg·mL^−1 in PBS). After three hours of incubation, the MTT solution was taken off and the precipitated formazan was dissolved in dimethylsulfoxide. The absorbance was measured at 570 nm using a plate reader (Epoch, BioTek, Winooski, VT, USA). The experiments were performed in at least three independent repetitions, with four technical repeats for each tested concentration. The IC50 values were calculated using CalcuSyn software (ver. 2.0, Biosoft, Cambridge, UK). The IC50 parameter was defined as the compound concentration that was necessary to reduce the proliferation of cells to 50% of the untreated control. The results are presented as average values with standard deviations. […] Values of CI < 1 represent synergism; CI = 1 represents an additive interaction (i.e., no interaction); and CI > 1 represents antagonism.
# [3] = test system: MCF-7 (human breast adenocarcinoma cell line); assay: MTT assay, cytotoxicity against MCF-7 cells; type: cell-based
# Excerpt: as §1, §2
Host-guest inclusion complex formation with α-CD (in words) [1],SMILES,"IC50 ([2]; Homo sapiens, 24 h incubation, read-out: Activity IC50, as 8HQ-Glu concentration)","IC50 ([2]; Homo sapiens, 48 h incubation, read-out: Activity IC50, as 8HQ-Glu concentration)","IC50 ([2]; Homo sapiens, 72 h incubation, read-out: Activity IC50, as 8HQ-Glu concentration)","IC50 ([3]; Homo sapiens, MCF7, MCF-7, 24 h incubation, read-out: Activity IC50, as 8HQ-Glu concentration)","IC50 ([3]; Homo sapiens, MCF7, MCF-7, 48 h incubation, read-out: Activity IC50, as 8HQ-Glu concentration)","IC50 ([3]; Homo sapiens, MCF7, MCF-7, 72 h incubation, read-out: Activity IC50, as 8HQ-Glu concentration)","IC50 ([2]; 24 h incubation, read-out: Activity IC50, as DOX concentration)","IC50 ([2]; 48 h incubation, read-out: Activity IC50, as DOX concentration)","IC50 ([2]; 72 h incubation, read-out: Activity IC50, as DOX concentration)","IC50 ([3]; MCF-7, 24 h incubation, read-out: Activity IC50, as DOX concentration)","IC50 ([3]; MCF-7, 48 h incubation, read-out: Activity IC50, as DOX concentration)","IC50 ([3]; MCF-7, 72 h incubation, read-out: Activity IC50, as DOX concentration)"
no inclusion complex formation,"OC1O[C@H](Cn2cc(COc3cccc4cccnc34)nn2)[C@@H](O)[C@H](O)[C@H]1O (stereo partly drawn) [8HQ-Glu, 6-(4-(8-quinolinyloxymethyl)-1H-1,2,3-triazol-1-yl)-6-deoxy-D-glucopyranose]",> 200 µM,> 200 µM,> 200 µM,168 µM,128 µM,55.3 µM,,,,,,
,"COc1cccc2c1C(=O)c1c(O)c3c(c(O)c1C2=O)C[C@@](O)(C(=O)CO)C[C@@H]3O[C@H]1C[C@H](N)[C@H](O)[C@H](C)O1 [DOX, doxorubicin]",,,,,,,> 20 µM,9.8 µM,0.39 µM,8.73 µM,0.81 µM,0.15 µM
